Where two headings read alike, the source gives them in different places.

This is an account of results in patent publication US12497392B2, “EP300/CBP inhibitor” (HINOVA PHARMACEUTICALS INC., priority 2019, dated 2025).

The target in one assay is EP300 BRD (Homo sapiens (Human), UniProt Q09472). The experiment in a line: EP300 AlphaScreen bromodomain (BRD) binding test. As for the experimental part:
(§1) CBP and EP300AlphaScreen Test:
(§2) • 1. Prepare 1× concentration of test buffer • 2. Preparation of compound
(§3) The compound was firstly diluted in a ratio of 1:1000 relative to the final concentration using a Precision automatic sampler (by 3× gradient dilution method): • 1) 50 μL of compound solution with a storage concentration of 10 mM was transferred to A2 well of a 96-well plate using an Echo automatic sampler. • 2) 30 μL of DMSO was transferred to well A1, and wells A3 to A12 with Precision™. • 3) 15 μL solution was transferred from A2 to A3 by Precision, and this operation was sequentially repeated until 15 μL solution was transferred from well A10 to well A11. Thus, a 1:3 gradient dilution was completed. • 4) The compound plate was centrifuged at a speed of 1000 r/min for one minute. • 3. Preparation of test plate
(§4) 20 nL of solution was transferred from each concentration well of the compound plate to the test plate using an Echo automatic sampler: from well A1 of the preparation plate to wells A1 and A2 of the test plate, and from well A2 of the preparation plate to wells A3 and A4 of the test plate. • 4. Binding test of bromodomain (BRD) • 1) Preparation of 2-fold solution of protein and polypeptide
(§5) The protein and polypeptide were dissolved in a 1× concentration of detection buffer. • 2) 10 μL of protein and polypeptide solution was transferred to each well in columns 3 to 24 in the test plate, and 10 μL of 1× test buffer was transferred to wells in columns 1 to 2 in the test plate as negative control. • 3) The test plate was centrifuged at a speed of 1000 r/min for one minute. • 4) The test plate was incubated at room temperature for 15 min. • 5) A 2-fold receptor and donor solution was prepared by dissolving acceptor and donor beads with one-fold test buffer. • 6) 2-fold receptor and donor solutions were transferred to the test plate.
(§6) 15 μL of acceptor and donor solution was added and light was avoided. • 7) The test plate was centrifuged at a speed of 1000 r/min for one minute and then incubated at room temperature for 60 min. • 5. The Endpoints were Read in EnSpire and Alpha Modes. • 6. Curve fitting
(§7) The experimental data was entered into an Excel document and the inhibition rate Inh % was calculated using equation (1): Inh %=(Max−Signal)/(Max−Min)×100 Equation (1): wherein, Max: control containing DMSO, Min: low control containing DMSO,
(§8) The obtained data were entered into the XL-Fit software, and the IC50 value was calculated using equation (2): Y=Bottom+(Top−Bottom)/(1+10^((Log IC50−X)×Hill Slope)) Equation (2): II. Experimental Results
For orientation: Alpha assays give light when donor and acceptor beads are brought close together.

Another assay concerns the target CBP BRD (Homo sapiens (Human), UniProt Q92793). Description: CBP AlphaScreen bromodomain (BRD) binding test. As for the experimental part: as §1, §2, §3, §4, §5, §6, §7, §8
Assay [1] has as its system CWR22RV1 cells. Description: Proliferation of prostate cancer CWR22RV1 cells (CCK-8, 6 days). In kind it is cell-based. As for the experimental part: (§9) • (1) CWR22RV1 prostate cancer cells were subcultured in cell culture medium, and well-grown cells were inoculated into 96-well plates with 80 μL per well and 1500 cells per well, and then the plate was cultured overnight at 37° C. in a 5% CO2 incubator. • (2) Drug was prepared as 30 mM of stock solution with dimethylsulfoxide (DMSO). Prior to use, the stock solution was diluted in a ratio of 1:3 with DMSO and then further diluted in a ratio of 1:3 to obtain 9 gradient concentrations. Each concentration of compound was diluted in a ratio of 1:200 with culture medium (to ensure the concentration of DMSO in the culture system was 0.1%). Two wells were set for each concentration. 20 μL of diluted compound solution was added to the cell culture well (with a final concentration of 10 μM, 3.3 μM, 1.1 μM, etc.), and then the plate was gently shaken to mix well. In addition, three negative control wells containing only cells and three blank control wells containing only culture medium (6 wells being each added with DMSO diluted in a ratio of 1:200 using 20 μL of culture medium) were included. 2. Test Results: • (1) After the plate was cultured for 6 days, 10 μL of CCK-8 was added to each well, and then the plate was continually cultured in a 5% CO2 incubator at 37° C. for 2.5 h. • (2) The absorbance (OD value) was measured at 450 nm with a microplate reader. • (3) Data were analyzed using the Dose-response-inhibition equation in the software GraphPad Prisms 6 to obtain IC50 values. 3. Experimental Results

Another assay deals with LNCAP. Description: Proliferation of LNCAP prostate cancer cells (CCK-8). In kind it is cell-based. Conditions: prostate cancer cell line LNCAP, read-out: IC50 against LNCAP. As for the experimental part:
as §9
(§10) Using the same method as in Example 2, CWR22RV1 cells were replaced with tumor cells in Table 3, and for the inhibitory activities against these tumor cells, the IC50 values (nM) of the compounds according to the present invention were tested and calculated.

In the next assay the test system is MCF-7. Description: Proliferation of MCF-7 breast cancer cells (CCK-8). Format: cell-based. Conditions: breast cancer cell line MCF-7, read-out: IC50 against MCF-7. As for the experimental part:
as §9, §10

The next assay has as its system OPM-2. Description: Proliferation of OPM-2 multiple myeloma cells (CCK-8). In kind it is cell-based. The settings on record: multiple myeloma cell line OPM-2, read-out: IC50 against OPM-2. As for the experimental part:
as §9, §10

The next assay has as its system VCAP. Description: Proliferation of VCAP prostate cancer cells (CCK-8). Format: cell-based. The settings on record: prostate cancer cell line VCAP, read-out: IC50 against VCAP. As for the experimental part: as §9, §10
The next assay deals with LNCAP-AR. Description: Proliferation of LNCAP-AR prostate cancer cells (CCK-8). Format: cell-based. Conditions: prostate cancer cell line LNCAP-AR; read-out: IC50 against LNCAP-AR. As for the experimental part: as §9, §10
A further assay has as its system MOLM-16. The experiment in a line: Proliferation of MOLM-16 leukemia cells (CCK-8). In kind it is cell-based. The settings on record: leukemia cell line MOLM-16, read-out: IC50 against MOLM-16. As for the experimental part: as §9, §10
The test system of another assay is MCF-7 cells. The experiment in a line: Combination with CDK4/6 inhibitor palbociclib, proliferation of MCF-7 breast cancer cells. In kind it is cell-based. The settings on record: Homo sapiens, MCF7, administrated alone; read-out: IC50 against MCF-7 cells. As for the experimental part:
(§11) Prior to use, the stock solution was diluted in a ratio of 1:3 with DMSO and then further diluted in a ratio of 1:3 to obtain 9 gradient concentrations. Each concentration of compound was diluted in a ratio of 1:200 with culture medium (to ensure the concentration of DMSO in the culture system was 0.1%). Two wells were set for each concentration. 20 μL of diluted compound solution was added to the cell culture well (with a final concentration of 10 μM, 3.3 μM, 1.1 μM, etc.); the stock solution of palbociclib was diluted with the culture medium as 500 nM, 150 nM, 50 nM, 5 nM, respectively, and then 20 μL of diluted palbociclib solution was added to the cell culture well ([…]). The plate was gently shaken to mix well. In addition, three negative control wells containing only cells and three blank control wells containing only culture medium (6 wells being each added with DMSO diluted in a ratio of 1:200 using 20 μL of culture medium) were included. 2. Test Results: • (1) After the plate was cultured for 6 days, 10 μL of CCK-8 was added to each well, and then the plate was continually cultured in a 5% CO2 incubator at 37° C. for 2.5 h. • (2) The absorbance (OD value) was measured at 450 nm with a microplate reader. • (3) Data were analyzed using the Dose-response-inhibition equation in the software GraphPad Prisms 6 to obtain IC50 values. 3. Experimental Results
Using the same method as in Example 4, CWR22RV1 cells were replaced with MCF-7 cells, and for the inhibitory activities against the proliferation of MCF-7 cells, the IC50 values (nM) of the compounds according to the present invention, palbociclib, and the combination of the compound according to the present invention and palbociclib were tested and calculated.

Assay [2] deals with CWR22RV1 cells. The experiment in a line: Combination with CDK4/6 inhibitor palbociclib, proliferation of CWR22RV1 prostate cancer cells. In kind it is cell-based. Conditions: CWR22Rv1, administrated alone; read-out: IC50 against CWR22RV1 cells. As for the experimental part: as §11
The mark [3] stands for this setting: CWR22Rv1, 144 h, 6 days, CCK-8, class symbols, read-out: IC50 against CWR22RV1 cells.

CBP BRD, sequence (Q92793 1085-1192): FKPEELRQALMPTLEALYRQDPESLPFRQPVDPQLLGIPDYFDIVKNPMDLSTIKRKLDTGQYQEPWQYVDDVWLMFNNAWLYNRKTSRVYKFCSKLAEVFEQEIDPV
EP300 BRD, sequence (Q09472 1049-1156): as the sequence (Q92793 1085-1192) above, with N47S, V73I, F93Y, A98S counted along it

By IC50 is commonly meant the point on the concentration scale where inhibition reaches its midpoint. With `CO[C@H]1CC[C@H](n2c([C@@H]3CCOCC(=O)N3c3ccc(F)c(F)c3)nc3cc(-c4c(C)noc4C)ccc32)CC1` [Compound 106], the figures for the concentration for half-maximal inhibition (IC50) at EP300 BRD, at CBP BRD and in the assay on CWR22RV1 cells [1] (setting [3]) were 2.2 nM, 4.8 nM and 500 to 2000 nM, respectively.

In the case of `CO[C@H]1C[C@@H](n2c([C@@H]3CCOC(=O)N3c3ccc(F)c(F)c3)nc3cc(-c4c(C)noc4C)ccc32)C1` [Compound 143], the IC50 is 2.7 nM at EP300 BRD, 4.7 nM on CBP BRD and 500 to 2000 nM with CWR22RV1 cells [1] (setting [3]).

Turning to `CCO[C@H]1CC[C@H](n2c([C@@H]3CCOC(=O)N3c3ccc(F)c(F)c3)nc3cc(-c4c(C)noc4C)ccc32)CC1` [Compound 171, (S)-3-(3,4-difluorophenyl)-4-(5-(3,5-dimethylisoxazol-4-yl)-1-((trans)-4-ethoxycyclohexyl)-1H-benzo[d]imidazol-2-yl)-1,3-oxazinane-2-one], the IC50 in the assay with LNCAP (Homo sapiens) was under 500 nM; with MCF-7 (Homo sapiens, MCF7) it was under 500 nM; on EP300 BRD, 2.4 nM; in the assay with OPM-2 (Homo sapiens), under 500 nM; in the assay on VCAP (Homo sapiens), under 500 nM; in the assay on LNCAP-AR, under 500 nM. Besides, the values for the half-maximal inhibitory concentration (IC50) at CBP BRD, in the assay on MOLM-16 (MOLM16) and in the assay with CWR22RV1 cells [1] (setting [3]) were 1.8 nM, under 500 nM and 500 to 2000 nM, respectively.

In the case of `CO[C@H]1CC[C@H](n2c([C@H]3COCC(=O)N3c3ccc(F)c(F)c3)nc3cc(-c4c(C)noc4C)ccc32)CC1` [Compound 112, (S)-4-(3,4-difluorophenyl)-5-(5-(3,5-dimethylisoxazol-4-yl)-1-((trans)-4-methoxycyclohexyl)-1H-benzo[d]imidazol-2-yl)morphine-3-one], the IC50 at EP300 BRD is 1.7 nM; on CBP BRD, 2 nM; with CWR22RV1 cells [1] (CWR22Rv1, 144 h, read-out: IC50 against CWR22RV1 cells), under 500 nM; with CWR22RV1 cells [1] (CWR22Rv1, 144 h, read-out: IC50 against CWR22RV1 prostate cancer cells) it was under 500 nM.

With `COc1cccc(-c2nc3cc(-c4c(C)noc4C)ccc3n2[C@H]2CC[C@H](OC)CC2)c1-c1ccc(F)cc1` [Compound 141], the IC50 was 9.6 nM on EP300 BRD, 22 nM at CBP BRD and over 2000 nM with CWR22RV1 cells [1] (setting [3]).

For the compound `CO[C@H]1CC[C@H](n2c([C@@H]3CCOC(=O)N3c3ccc(Cl)c(F)c3)nc3cc(-c4c(C)noc4C)ccc32)CC1` [Compound 117, (S)-3-(3-fluoro-4-chlorophenyl)-4-(5-(3,5-dimethylisoxazol-4-yl)-1-((trans)-4-methoxycyclohexyl)-1H-benzo[d]imidazol-2-yl)-1,3-oxazinane-2-one], the concentration for half-maximal inhibition (IC50) is under 500 nM with LNCAP (Homo sapiens); under 500 nM with MCF-7 (Homo sapiens, MCF7); 0.73 nM at EP300 BRD; under 500 nM in the assay on OPM-2 (Homo sapiens); under 500 nM in the assay with VCAP (Homo sapiens); under 500 nM in the assay on LNCAP-AR. The IC50 at CBP BRD was 0.71 nM; with MOLM-16 (MOLM16), under 500 nM; in the assay with CWR22RV1 cells [1] (CWR22Rv1, 144 h, 6 days, CCK-8, bound stated, read-out: IC50 against CWR22RV1 prostate cancer cells), under 500 nM; in the assay with CWR22RV1 cells [1] (setting [3]), under 500 nM.

As to “(S)-4-(3,4-difluorophenyl)-5-(5-(3,5-dimethylisoxazol-4-yl)-1-((trans)-4-deuteromethoxycyclohexyl)-1H-benzo[d]imidazol-2-yl)morphine-3-one [Compound 113]”, the IC50 in the assay on LNCAP, with MCF-7, in the assay on OPM-2, in the assay on VCAP, in the assay with LNCAP-AR and with MOLM-16 was under 500 nM throughout. Also, the IC50 is under 500 nM in the assay on CWR22RV1 cells [1] (6 days, CCK-8, bound stated, read-out: IC50 against CWR22RV1 prostate cancer cells) and under 500 nM in the assay with CWR22RV1 cells [1] (6 days, CCK-8, class symbols, read-out: IC50 against CWR22RV1 cells).

As for `CC(=O)c1c(C)c2cnc(Nc3ccc(N4CCNCC4)cn3)nc2n(C2CCCC2)c1=O` [palbociclib, reference compound], the values for the IC50 in the assay on MCF-7 cells and with CWR22RV1 cells [2] were 12800 nM and 100 nM, respectively.
